Assay [1] deals with turpentine-induced wasting. Nature of the assay: Turpentine-induced wasting (Example 4). It counts as in vivo, mice. To be noted: 100 mg/kg intraperitoneally day -3, 0.1 ml turpentine i.m. day 0, FIG. 4. The procedure: (See Gershenwald et al., "Interleukin 1 receptor blockade attenuates the host inflammatory response" Proc. Natl. Acad. Sci., 87 4966-70, (July, 1990) for a description of the turpentine-induced wasting procedure). In this experiment, three days before day 0 (day -3), five male (CD)2F1 mice, obtained from Charles Rivers Laboratories, each received intraperitoneally 0.5 ml of PBS. Five other mice obtained from the same source each received intraperitoneally 100 mg/kg body weight suramin diluted with 0.5 ml of PBS.

The subject of assay [2] is C-26 cachexia. Nature of the assay: Dose dependence of C-26 cachexia inhibition (Example 3). To be noted: increasing amounts intraperitoneally; day 17; FIG. 3. The class given is in vivo, mice. On the procedure:
Mice were obtained and injected with C-26 cells as set forth above for Example 1, and then were put into four groups of five mice each. The mice were injected intraperitoneally with increasing amounts of suramin as indicated in FIG. 3 except for the control mice. On day 17, the total weight of each group was compared to a control group of five mice which had been injected with 0.5 ml PBS intraperitoneally.

In assay [3] the test system is IL-6. Put plainly: IL-6 dependent proliferation of B-9 cells (3H-thymidine incorporation). To be noted: preincubated with IL-6; 3 days culture; FIG. 5. It counts as cell-based. On the procedure: A standard proliferation assay, Strassmann et al., J. Immunol., 147:1279-1285 (1991), was conducted using 96 well plates The medium used was RPMI with 10% fetal calf serum B-9 cells were added and were cultured for 3 days. The extent of proliferation of B-9 cells was determined by the incorporation of radioactive thymidine as described in Strassmann et al., J. Clin. Invest., 89, pp. 1681-84 (May 1992). […] (See Strassmann et al., J. Clin. Invest., 89, pp. 1681-84 (May 1992), incorporated herein by reference.)
The same procedures set forth in Example 5 was followed except that a different sulfate-containing compound, Pentosan polysulfate, was used.
The same procedure set forth in Example 5 was followed except in this example, Dextran sulfate and Dextran, were used instead of Suramin.

Assay [4] has as its system C-26 cachexia. Put plainly: Time course of C-26 mediated weight loss and tumor volume (Example 2). The class given is in vivo, mice. To be noted: 100 mg/kg intraperitoneally days 7 and 12. On the procedure: In subsequent experiments, eight mice obtained from the same source as above were injected with 0.5 ml PBS intraperitoneally and eight other mice from the same source as above were injected with 100 mg/kg body weight of suramin intraperitoneally. The injections were given on days 7 and 12. The weight of the two groups was measured several times a week.

Assay [5] has as its system IL-6 receptor. Nature of the assay: Radioreceptor assay: binding of 125I-IL-6 to U266 cells. Details: species or system human. To be noted: 90 minutes at 4° C.; increasing amounts of compound. The procedure: This experiment analyzed whether suramin inhibits IL-6 bioactivity by interfering with binding to the IL-6 receptor. Into eighteen test tubes was placed U266 indicator cells (obtained from ATCC), a binding buffer, made up of RPMI medium, 0.1 mg BSA and […] Hepes, and 100,000 cpm (0.8 ng) of ^125 I-IL-6. The tubes were divided into six groups of three tubes each and received suramin as follows: group 1 had 300 uM suramin; group 2 had 100 uM suramin; group 3 had 30 uM suramin; group 4 had 10 uM suramin; and group 5 had no suramin, but only medium (control for maximal binding). In addition, group 6 received excess unlabeled IL-6 without suramin for use in determining the background of binding in this assay.
After 90 minutes of incubation at 4° C. and the centrifugation of cells on oil (a standard radioreceptor assay) Strassmann, J. Immunol., 147:1279-1289 (1991), the amount of radioactivity bound to the cells was determined. […] Also, the addition of increasing amounts of suramin prevented the binding of radioactive IL-6 to U266 human myeloma indicator cells in vitro as reflected in the results set forth in FIG. 6.
The same procedure set forth in Example 6 was followed, except that Pentosan polysulfate was used instead of Suramin.

In assay [6] the test system is C-26.IVX cells derived from the colon adenocarcinoma. Nature of the assay: Suramin blocks C-26 mediated cachexia (Example 1). The class given is in vivo, mice. To be noted: 200 mg/kg I.P. d7, 13. The procedure:
Eleven male mice (CD)2F1 obtained from Charles Rivers Laboratories were weighed and then were inoculated with 0.5×10^6 C-26.IVX cells derived from the colon adenocarcinoma (by the procedure described in Strassmann et al., J. Clin. Invest., 89, pp. 1681-84 (May 1992) which is incorporated herein by reference). The day of inoculation was identified as day 0 (d0). On days 7 and 13, five of these mice each received intraperitoneally 0.5 ml of PBS (phosphate buffered saline) and the other six mice each received intraperitoneally 200 mg/kg body weight of suramin diluted in 0.5 ml PBS. On day 19, all the mice were sacrificed and the final total weight, the host weight, the tumor weight, epididymal fat, and dry weight were measured.

Assay [7] relates to 125I-IL-6. Put plainly: 125I-IL-6 sequestration in vivo (liver, kidney, spleen radioactivity). Also on record: species or system mice. To be noted: for Kidney radioactivity / Liver radioactivity / Spleen radioactivity: 5 mg/mouse, mean ± 0.5 range of 2 mice. The procedure:
The ability to prevent binding of IL-6 in vivo was analyzed as follows. Eight mice received 5.0 mg/mouse of suramin intravenously and eight other mice received 0.2 ml PBS/mouse intravenously 0.5 hour. Thereafter, all sixteen of the mice received an injection of 300,000 cpm (2.4 ng) of ^125 I-IL-6. Four mice from each group were sacrificed 30 minutes after receiving the ^125 I-IL-6 and the remaining four mice from each group were sacrificed 60 minutes after receiving the ^125 I-IL-6. The liver, kidney, and spleen were removed and measured for radioactivity (cpm).

Assay [8] concerns cachexia-inducing action of CF. To be noted: Silva et al., Infection and Immunity 1988; cited from earlier work.
Where [9] appears, read: 5.0 mg/mouse intravenously 0.5 hour before 125I-IL-6.

SMILES strings stand for the structures. Where “and” joins values, the source holds several entries; their conditions need not be identical. Equal values may be shown once. Entries after “also recorded” stand apart in the source; their conditions may differ. Where a name gives a salt, the structure may show the parent alone.

`Cc1ccc(C(=O)Nc2ccc(S(=O)(=O)O)c3cc(S(=O)(=O)O)cc(S(=O)(=O)O)c23)cc1NC(=O)c1cccc(NC(=O)Nc2cccc(C(=O)Nc3cc(C(=O)Nc4ccc(S(=O)(=O)O)c5cc(S(=O)(=O)O)cc(S(=O)(=O)O)c45)ccc3C)c2)c1` [Suramin, 8-8'-[Carbonylbis[imino-3,1-phenylenecarbonylimino(4-methyl-3,1-phenylene)carbonylimino]]bis-1,3,5-naphthalenetrisulfonic acid hexasodium salt]: in assay [1], the turpentine-induced weight loss entry is on record as “exhibited no such weight loss; also recorded: prevention of turpentine-induced wasting”. Also, the “percentage of weight loss (wasting) versus dose” value in assay [2] is “inhibited wasting in a dose dependent manner; also recorded: dose dependent inhibition of C-26 cachexia”. Also, the “bioactivity of IL-6 (proliferation of B-9 cells)” value in assay [3] is on record as “inhibits the bioactivity of IL-6; also recorded: inhibition of bioactivity of IL-6”. Also, the “C-26 mediated weight loss over time” value in assay [4] (FIG. 1) is reported as “inhibited C-26 mediated weight loss in a significant time dependent manner; also recorded: time dependent inhibition of C-26 cachexia”. Besides, the “tumor (C-26) growth in vivo (tumor volume)” value in assay [4] (FIG. 2) is listed as “no significant effect on the tumor (C-26) growth in-vivo except on day 19; also recorded: lack of effect”. The “binding of radioactive IL-6 to U266 cells” value in assay [5] is “prevents binding of the IL-6 to the U266 cells in a dose dependent manner; also recorded: prevention of the binding of IL-6 to human myeloma cells”. Also, in assay [6] (d19, individual mouse), the “% weight loss” value was 5.3% and 17.6% and 10.5% and 15.4% and 18.6% and 5.1%; the Dry wt is 7.8 g and 6.5 g and 6.6 g and 6.4 g; the Final total wt. is 25.9 g and 25.2 g and 26.2 g and 25.5 g and 25.4 g and 27.4 g; the “Host's wt.” value is 25.0 g and 23.3 g and 24.2 g and 23.5 g and 23.1 g and 25.8 g. For the same molecule, in assay [6] (d19, individual mouse), the IL-6 is 292 U/ml and 360 U/ml and 310 U/ml and 535 U/ml and 477 U/ml and 328 U/ml; the “Serum Glucose” value was 128 mg/dL and 114 mg/dL and 100 mg/dL and 110 mg/dL and 109 mg/dL and 116 mg/dL; the Tumor wt is 0.93 g and 1.98 g and 2.08 g and 1.96 g and 2.36 g and 1.64 g. In addition, in assay [6] (d19, mean ±SD of six mice), the “% weight loss” value stood at 12.0%, the Dry wt amounted to 6.7 ± 0.5 g, the “Host's wt.” value stood at 24.2 g and the IL-6 is given as 384 U/ml. In assay [6] (d19, mean ±SD of six mice), the “Serum Glucose” value was found to be 113 ± 9 mg/dL and the Tumor wt is 1.82 g. Besides, in assay [6] (d19, mean ±SD of six mice, listed as suramin), the “% weight loss” value stood at 12.0±6.0%. In addition, the Final total wt. in assay [6] (sacrificed d19, mean ±SD of six mice) is 26.9 ± 0.8 g. In assay [7] (setting [9]), the “less radioactivity measured in the liver versus PBS” value is given as “approximately 50%” and the “radioactive IL-6 present in the kidney” value is reported as “increase of radioactive IL-6 present in the kidney”. Also, in assay [7] (Expt. 1, 30 minutes), the Kidney radioactivity is 70151 ± 125 cpm, the Liver radioactivity was 8385 ± 1525 cpm/gm and the Spleen radioactivity is 1347 ± 295 cpm. In assay [7] (Expt. 1, 60 minutes), the Kidney radioactivity came to 36595 ± 1760 cpm, the Liver radioactivity was found to be 4275 ± 91 cpm/gm and the Spleen radioactivity is 630 ± 6 cpm. For the same molecule, in assay [7] (Expt. 2, 30 minutes), the Kidney radioactivity is 57287 ± 2849 cpm, the Liver radioactivity is recorded as 9277 ± 235 cpm/gm and the Spleen radioactivity is on record as 1306 ± 4 cpm. Further, in assay [7] (Expt. 2, 60 minutes), the Kidney radioactivity is listed as 38254 ± 466 cpm, the Liver radioactivity is given as 5512 ± 379 cpm/gm and the Spleen radioactivity is 631 ± 25 cpm.
On to `C[C@@H]1C[C@H]2[C@@H]3CCC4=CC(=O)C=C[C@]4(C)[C@@]3(F)[C@@H](O)C[C@]2(C)[C@@]1(O)C(=O)CO` [Dexamethasone], for which the “cachexia-inducing action of CF” value in assay [8] is reported as “partially inhibit the cachexia-inducing action of CF”.

The values are drawn from patent US5453444A, “Method to mitigate or eliminate weight loss” (Otsuka Pharmaceutical Co., Ltd., priority 1994, dated 1995).
